Test results taken from BindingDB's records for doi:10.1016/j.bmcl.2009.03.150 (Gsk, 2009).

Tests used:
Assay in all cases: Enzyme Inhibition Assay
Cathepsin D = Cathepsin D (Homo sapiens, UniProt P07339)
Beta-secretase 2 = target: T1, Beta-secretase 2 (Homo sapiens, UniProt Q9Y5Z0)
T1 sequence (Q9Y5Z0 whole entry): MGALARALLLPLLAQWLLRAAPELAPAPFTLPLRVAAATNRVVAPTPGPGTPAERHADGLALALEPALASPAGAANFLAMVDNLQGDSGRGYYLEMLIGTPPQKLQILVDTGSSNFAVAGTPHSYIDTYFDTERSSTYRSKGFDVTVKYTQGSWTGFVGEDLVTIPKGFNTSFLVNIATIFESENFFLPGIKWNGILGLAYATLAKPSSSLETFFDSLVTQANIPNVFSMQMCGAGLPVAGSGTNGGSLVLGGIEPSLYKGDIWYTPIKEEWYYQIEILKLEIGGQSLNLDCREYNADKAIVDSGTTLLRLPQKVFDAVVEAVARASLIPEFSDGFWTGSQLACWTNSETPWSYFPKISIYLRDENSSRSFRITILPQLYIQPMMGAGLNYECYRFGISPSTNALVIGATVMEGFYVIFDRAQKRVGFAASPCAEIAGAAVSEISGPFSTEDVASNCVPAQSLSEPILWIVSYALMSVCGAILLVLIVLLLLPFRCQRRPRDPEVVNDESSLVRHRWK

Beta-secretase 1 = Beta-secretase 1 (Homo sapiens, UniProt P56817); conditions: pH 4.5; 22 °C
Sequence of Beta-secretase 1 (P56817 whole entry): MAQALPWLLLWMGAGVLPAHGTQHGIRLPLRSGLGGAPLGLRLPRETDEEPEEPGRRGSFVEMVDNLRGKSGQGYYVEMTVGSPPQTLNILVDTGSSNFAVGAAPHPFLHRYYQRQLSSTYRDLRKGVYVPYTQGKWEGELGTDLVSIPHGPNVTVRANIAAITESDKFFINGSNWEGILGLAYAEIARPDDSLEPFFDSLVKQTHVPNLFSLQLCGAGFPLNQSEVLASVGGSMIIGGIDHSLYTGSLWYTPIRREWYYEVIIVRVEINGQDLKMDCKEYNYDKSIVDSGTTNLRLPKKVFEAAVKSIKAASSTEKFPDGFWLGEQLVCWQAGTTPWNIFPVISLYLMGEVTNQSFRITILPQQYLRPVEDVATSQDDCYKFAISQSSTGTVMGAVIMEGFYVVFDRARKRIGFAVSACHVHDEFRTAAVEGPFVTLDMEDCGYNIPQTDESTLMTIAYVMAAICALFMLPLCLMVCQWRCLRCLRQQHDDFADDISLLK

Sequence of Cathepsin D (P07339 65-162 limits assumed): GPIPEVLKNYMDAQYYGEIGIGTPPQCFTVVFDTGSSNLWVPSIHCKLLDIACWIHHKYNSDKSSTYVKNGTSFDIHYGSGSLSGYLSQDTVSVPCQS
Sequence of Cathepsin D (P07339 169-412 limits assumed): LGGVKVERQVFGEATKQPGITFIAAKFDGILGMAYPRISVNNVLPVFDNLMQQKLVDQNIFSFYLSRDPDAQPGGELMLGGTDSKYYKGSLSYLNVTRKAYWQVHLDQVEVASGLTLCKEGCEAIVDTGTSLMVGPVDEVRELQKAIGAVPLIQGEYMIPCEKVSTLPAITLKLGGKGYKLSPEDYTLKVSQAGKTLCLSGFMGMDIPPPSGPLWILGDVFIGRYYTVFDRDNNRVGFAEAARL

| IC50 (Cathepsin D) | IC50 (Beta-secretase 2) | IC50 (Beta-secretase 1) | Structure (SMILES) |
| --- | --- | --- | --- |
| 2900 nM | 5.46 µM | 490 nM | CCc1cn2c3c(cc(C(=O)N[C@@H](Cc4ccccc4)[C@H](O)CNC4CC4)cc13)N(C)S(=O)(=O)CCC2 [8,6,5 tricyclic sulfonamide, 33] |
| 2240 nM | 3.8 µM | 26 nM | CCN1CCN2CCS(=O)(=O)N(C)C3C=C(C(=O)N[C@@H](Cc4ccccc4)[C@H](O)CNCc4cccc(C(F)(F)F)c4)C=C1C32 (some centres not stated) [7,6,6 tricyclic sulfonamide, 10] |
| 1570 nM | 1.86 µM | 28 nM | CCc1cn2c3c(cc(C(=O)N[C@@H](Cc4ccccc4)[C@H](O)CNCc4cccc(OC)c4)cc13)N(C)S(=O)(=O)CCC2 [8,6,5 tricyclic sulfonamide, 32] |

| Structure (SMILES) | IC50 (Cathepsin D) | IC50 (Beta-secretase 2) | IC50 (Beta-secretase 1) |
| --- | --- | --- | --- |
| CCN1CCN2CCS(=O)(=O)N(C)C3C=C(C(=O)N[C@@H](Cc4ccccc4)[C@H](O)CNC4CC4)C=C1C32 (some centres not stated) [7,6,6 tricyclic sulfonamide, 19] | 26300 nM | 16.2 µM | 550 nM |
